Test results from PMC8229335, “Screening of Novel Laccase Producers—Isolation and Characterization of Cold-Adapted Laccase from Kabatiella bupleuri G3 Capable of Synthetic Dye Decolorization” (Biomolecules, 2021).

Biological target: T1, K. bupleuri laccase G3 (Aureobasidium bupleuri, UniProt A0A8F5DNG6)
T1 construct: about 70-75 kDa by SDS-PAGE
T1 sequence (A0A8F5DNG6 21-645): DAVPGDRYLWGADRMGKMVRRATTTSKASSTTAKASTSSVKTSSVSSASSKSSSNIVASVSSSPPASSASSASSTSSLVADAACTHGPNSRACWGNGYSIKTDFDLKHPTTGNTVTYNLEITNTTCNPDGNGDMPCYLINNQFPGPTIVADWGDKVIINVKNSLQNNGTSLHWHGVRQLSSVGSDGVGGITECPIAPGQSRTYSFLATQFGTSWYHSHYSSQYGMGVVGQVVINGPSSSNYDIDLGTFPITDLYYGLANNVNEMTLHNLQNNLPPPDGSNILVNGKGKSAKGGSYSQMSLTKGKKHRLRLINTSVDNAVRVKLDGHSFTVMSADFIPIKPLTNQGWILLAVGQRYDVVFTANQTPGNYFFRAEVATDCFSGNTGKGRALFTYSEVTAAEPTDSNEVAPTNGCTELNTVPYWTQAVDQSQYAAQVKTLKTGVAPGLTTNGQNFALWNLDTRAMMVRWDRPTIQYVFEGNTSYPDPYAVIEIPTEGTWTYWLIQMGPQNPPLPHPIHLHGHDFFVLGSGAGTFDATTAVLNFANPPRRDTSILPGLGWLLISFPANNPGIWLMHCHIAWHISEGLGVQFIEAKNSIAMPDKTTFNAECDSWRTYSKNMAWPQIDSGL
Experiment: spectrophotometric oxidation at […] nm; Lineweaver-Burk
Type: biochemical
Conditions: pH 3.5, 30 °C; partially purified native enzyme; read-out: apparent Km

Km: 584 µM
Compound: CCn1c(=NN=c2sc3cc(S(=O)(=O)O)ccc3n2CC)sc2cc(S(=O)(=O)O)ccc21 [ABTS, 2,2’-azino-bis(3-ethylbenzothiazoline-6-sulfonic acid)]
